These results are taken from patent publication US7115380B2, “Applications of peptides derived from the cytoplasmic domain of amyloid precursor protein (APP)” (Centre National de la Recherche Scientifique, priority 1999, dated 2006).

Where a SMILES comes first, the peptide text is derived from it. The star is where a group is joined. Cbz = O=C(OCc1ccccc1)*; CH2F = FC*

Assay [1] has as its system p20 subunit of caspase 3 in mouse cortical embryonic neurons. Put plainly: Immunoreactivity for the p20 subunit of caspase 3 (FIGS. 6 and 7). It is filed as cell-based. The following applies: inhibitor with peptide Jcasp. The method, then:
(§1) For the immunodetection of the fractin or of the p20 subunit of caspase 3 (Pharmingen), the cells are fixed with 4% paraformaldehyde (30 minutes, room temperature), washed three times with PBS and saturated for 1 hour at 37° C. with 10% fetal calf serum (FCS) in PBS containing 0.2% of Triton X 100.
(§2) Purified primary antibodies directed against fractin or p20 are diluted (in PBS-FCS) 2000-fold and 500-fold, respectively, incubated overnight at 4° C. washed three times and incubated with biotinylated anti-rabbit antibodies.
(§3) The detection is carried out using the alkaline phosphatase amplification kit (Vector, France).
(§4) For each condition, 600 to 800 cells are counted three times.
(§5) The statistical analysis is carried out with ANOVA and the Scheffé test.
In order to verify that caspase 3 is effectively involved in the apoptosis caused by peptide Jcasp, use is made of the fact that this enzyme (caspase 3) is synthesized in the form of a propetide (37 kDa) which, after stimulation, generates an active subunit of 17–22 kDa (p20).
Immunoreactivity for p20 is examined in mouse cortical embryonic neurons cultured for 24 hours in the presence of several peptides. FIG. 6 illustrates the immunoreactivity for the p20 protein and FIG. 7 quantifies the induction of the p20.

In assay [2] the test system is E15 rat cortical neurones. Put plainly: Cell death by TUNEL in E15 rat cortical neurones (FIG. 3). It is filed as cell-based. As for the experimental part: (§6) Cortical and corticostriatal neurons are prepared, as described previously (Lafont et al., Development, 1992, 114, 17–29, ), from E14, mouse embryos or from E15, rat embryos.
(§7) Briefly, the dissociated cells are plated out onto polyornithine-coated plastic plates (ELISA-type plates) at a density of 5,000, cells per well, and incubated in a suitable medium supplemented with hormones, proteins and salts.
(§8) All the peptides are added to the cells two hours after the latter have been plated out. The internalization is verified by confocal microscopy after immunolabeling (Pmyc) or detection of biotin (Jcasp and its variants).
(§9) The internalization and the intracellular stability of Jcasp, Pmyc and J(Y→D)Casp are identical. The irreversible caspase inhibitors zVAD-fmk (100 μM) and zDEVD-fmk (200 μM) (Calbiochem, France) are added 1 hour before addition of the peptide.
(§10) The apoptotic cells are detected by TUNEL labeling (fluorescein or alkaline phosphatase kits) as described by the supplier (Roche Diagnostics, France).
as §4, §5
Peptide Jcasp induces neuronal apoptosis. Two hours after plating out onto plates, peptide Jcasp is added to the E15 rat cortical neurones and cell death is evaluated by the TUNEL effect, 24 hours later.

Assay [3] relates to actin cleavage by caspase 3 in neurons. The assay can be described thus: Quantification of actin cleavage by caspase 3 using anti-fractin antibody (FIGS. 4 and 5). It is filed as cell-based, mouse or rat. To be noted: for actin cleavage (percentage of fractin-positive neurons): 24 h, triplicate. The method, then: as §1, §2, §3, §4, §5
FIGS. 4 and 5 illustrate the quantification of the actin cleavage by caspase 3 using the anti-fractin antibody, by immunocytochemistry after fixing the cells with paraformaldehyde (F. Yang et al., Am. J. Pathol., 1998, 152, 2, 379–389). The anti-fractin antibody specifically recognizes actin cleaved by caspase 3. The percentage of fractin-positive neurons was determined after 24 h of internalization of the peptides, by counting approximately 1000 cells per well in triplicate.

Assay [4] has as its system neurons (primary culture). Put plainly: Quantification of DNA cleavage by TUNEL 24 h after internalization of the peptides (FIG. 2). Type of assay: cell-based, mouse or rat. To be noted: for DNA cleavage (percentage of TUNEL-positive cells): triplicate, p<0.0001. As for the experimental part: as §6, §7, §8, §9, §10, §4, §5
Peptide G was internalized at 2 concentrations (1X and 2X) and peptide Gcasp (or Jcasp) was internalized at the 1X concentration, in the presence or absence of the caspase inhibitor zVAD.
Each condition was tested in triplicate. The percentage of positive cells was evaluated after 24 h by counting approximately 1000 cells per well.

The test system of assay [5] is cortical and corticostriatal neurons. The assay can be described thus: Internalization of peptides into primary cultures of neurons: toxicity, neurite growth, neuronal death. Type of assay: cell-based, mouse or rat. As for the experimental part:
as §6, §7
The internalization conditions are the same as those described in International Application WO 97/12912.
as §8

Consider `COC(=O)CC[C@H](NC(=O)[C@H](CC(=O)OC)NC(=O)OCc1ccccc1)C(=O)N[C@H](C(=O)N[C@@H](CC(=O)OC)C(=O)CF)C(C)C` [zDEVD-fmk], for which the “effect on activation of p20 by peptide Jcasp” value in assay [1] is given as “significantly decreases the activation of p20”. For the same compound, the “effect on basal cell death (TUNEL)” value in assay [2] (inhibitor at 200 μM, added 1 hour before peptide) was “weak effect”. Moreover, the “inhibition of DNA fragmentation induced by peptide Jcasp” value in assay [2] (inhibitor at 200 μM, Jcasp at 1.2 μM and 2.4 μM) was “inhibits the DNA fragmentation”. Moreover, the “effect on actin cleavage induced by peptide Jcasp (FIG. 5)” value in assay [3] (inhibitor with peptide Jcasp) is “inhibits the actin cleavage”.

Regarding `COC(=O)C[C@H](NC(=O)[C@H](C)NC(=O)[C@@H](NC(=O)OCc1ccccc1)C(C)C)C(=O)CF` [zVAD-fmk] (Cbz-Val-Ala-Asp(OMe)-CH2F), the “effect of caspase inhibitor on peptide-induced increase in DNA cleavage (TUNEL)” value in assay [4] (with peptide G or Jcasp) was “inhibits this increase in cleavage”. The “effect on endogenous cleavage of actin by caspases of neurones” value in assay [3] (inhibitor alone) is on record as “inhibits all endogenous cleavage”. The “effect on the peptide-induced increase in actin cleavage” value in assay [3] (with G1X, G2X and Gcasp1X, p<0.0001, inhibition not complete) is listed as “significantly inhibits the increase”.

For the compound “Pmyc: SEQ ID NO: 5 + peptide corresponding to the MYC sequence [EQKLISEED]; no relation to APP (KQIKIWFQNRRMKWKKEQKLISEED; listed as Homo sapiens)”, the “DNA fragmentation / number of TUNEL-positive cells” value in assay [2] (24 hours, concentration not given) is reported as “no effect”.

Turning to “peptide E: SEQ ID NO: 5 + domain E (VDAAVTPEE, SEQ ID NO: 6), APP positions 663–671 (KQIKIWFQNRRMKWKKVDAAVTPEE; listed as Homo sapiens)”, the “effect on neurite growth after internalization” value (from here on “effect on neurite growth”) in assay [5] (internalization into neurons) is given as “no effect”.

Consider “peptide G: KQYTSIHHG, APP positions 651–659 (SEQ ID NO: 2, Y0 null), tested with Y1 = penetratin SEQ ID NO: 5 (KQIKIWFQNRRMKWKKKQYTSIHHG; listed as Homo sapiens)”, for which the “DNA cleavage (percentage of TUNEL-positive cells)” value in assay [4] (concentration 1X) and in assay [4] (concentration 2X) was “significant increase” each time. In assay [5] (concentrations lower than one μM), the “effect on neurite growth” value is “reproduces the effects of the intact C-terminal domain”. The “pro-apoptotic nature after internalization” value in assay [5] (internalized into neurons) is given as “pro-apoptotic”. Besides, the “actin cleavage (percentage of fractin-positive neurons)” value in assay [3] (1X) was “significant increase”; in assay [3] (2X, p<0.0001), “significant increase”.

For “peptide H: SEQ ID NO: 5 + domain H (NGYENPTYK, SEQ ID NO: 7), APP positions 680–688 (KQIKIWFQNRRMKWKKNGYENPTYK; listed as Homo sapiens)”, in assay [5] (internalization into neurons), the “effect on neurite growth” value is “no effect”.
